Tests used:
Format in all cases: in vivo
weeds = assay: Activity assay of compositions: soil sealing treatment (S), fresh weight inhibition and combined effect (Gowing method); settings: 21 d
Protocol: The required active ingredient B was purchased from a reagent company or a technical material manufacturer or synthesized by a conventional method. The technical materials were all dissolved with acetone solvents and diluted with aqueous solution of 0.1% Tween-80 emulsifier, which should be used immediately after dilution.
• Weeds were cultivated in a controllable sunlight greenhouse at 20 to 30° C., in natural light, and with relative humidity of 57% to 72%. […] The test soil was quantitatively filled to ¾ of the pot, and then watered from the bottom of the pot to completely wet the soil to saturation. The test weed seeds were accelerated to just germinate, and then evenly and quantitatively broadcasted on the soil surface, covered with 0.5-1 cm soil according to the sizes of the seeds, and ready for use 72 hours after sowing.
Each treatment was repeated 4 times. Four pots with 20 weed seeds sowed per pot were treated each time.
The well-sowed test materials were evenly placed on a platform with an area of 0.5 m^2, and foliage spraying was carried out by the 3WP-2000-type walking spray tower at a dosage of 450 kg/ha and a spray pressure of 0.3 MPa. After all the solution was sprayed, the air valve was closed. And 30 seconds later, the door of the spray tower was opened, and the nutritional bowl was taken out. Next, the air valve was opened, and the spray tube was cleaned by spraying 50 ml of water.
A method for investigating absolute numbers was employed. Whole seedlings of survival weeds were cut off along the soil surface with a blade, and the fresh weight of the weeds was weighed using an analytical balance. For dead weeds, the fresh weight thereof was zero.
The investigation was performed 21 days after the treatment for once in total.
The theoretical fresh weight inhibition rate of a mixed combination of each treatment was calculated by the Gowing method (E0=X+Y−X*Y/100). Then compared with the measured inhibition rate (E), the type of the combined effect of the combination of the two on weeds was evaluated, which was a synergistic effect when E−E0>10%; an antagonistic effect when E−E0<−10%; an additional effect when −10%≤E−E0≤10%. An optimal ratio was determined according to factors such as the actual control effects, characteristics of herbicides, balance of the formulation, etc. In the formula, X represents the fresh weight inhibition rate of the active ingredient A in a dosage of P; Y represents the fresh weight inhibition rate of the active ingredient B in a dosage of Q. The statistical results are shown in Table 4.

[1] = test system: monocotyledonous and dicotyledonous weeds; assay: Pre-emergence test experiment (weeds); set-up: key: 9: completely dead; 8: growth control rate is greater than or equal to 90% and less than 100%; 7: growth control rate is greater than or equal to 80% and less than 90%; 6: growth control rate is greater than or equal to 70% and less than 80%; growth control rate is greater than or equal to 50% and less than 70%; 4: growth control rate is greater than or equal to 30% and less than 50%; growth control rate is greater than or equal to 20% and less than 30%; growth control rate is greater than or equal to 10% and less than 20%; growth control rate is less than 10%; 0: no effect; settings: 30 g a.i./ha
major crops = assay: Pre-emergence test experiment (crops); set-up: key: 9: completely dead; 8: growth control rate is greater than or equal to 90% and less than 100%; 7: growth control rate is greater than or equal to 80% and less than 90%; 6: growth control rate is greater than or equal to 70% and less than 80%; growth control rate is greater than or equal to 50% and less than 70%; 4: growth control rate is greater than or equal to 30% and less than 50%; growth control rate is greater than or equal to 20% and less than 30%; growth control rate is greater than or equal to 10% and less than 20%; growth control rate is less than 10%; 0: no effect; settings: 30 g a.i./ha
[2] = Silene conoidea, B 30 g a.i./ha
[3] = Silene conoidea, B 60 g a.i./ha
[4] = Eclipta prostrata, B 75 g a.i./ha

Row | Structure (SMILES) | Pre-emergence activity level (growth control rate) on Amaranthus retroflexus [1] | Pre-emergence activity level (growth control rate) on Descurainia sophia [1] | Pre-emergence activity level (growth control rate) on Digitaria sanguinalis [1] | Pre-emergence activity level (growth control rate) on Setaria viridis [1] | Pre-emergence activity level (growth control rate) on Solanum nigrum [1] | Pre-emergence activity level (growth control rate) on Veronica [1] | Pre-emergence plant damage level (growth control rate) on Corn (major crops) | Pre-emergence plant damage level (growth control rate) on Cotton (major crops) | Pre-emergence plant damage level (growth control rate) on Soybean (major crops) | other results
1 | COC(=O)c1sccc1S(=O)(=O)NC(=O)Nc1nc(C)nc(OC)n1 [Thifensulfuron-methyl] |  |  |  |  |  |  |  |  |  | Control effect of B applied alone in a corresponding dose (%) (weeds; [2]): 47.5%; Control effect of B applied alone in a corresponding dose (%) (weeds; [3]): 62.1%
2 | C#CCN1C(=O)COc2cc(F)c(N3C(=O)C4=C(CCCC4)C3=O)cc21 [Flumioxazin] |  |  |  |  |  |  |  |  |  | Control effect of B applied alone in a corresponding dose (%) (weeds; Commelina communis, B 15 g a.i./ha): 35.0%; Control effect of B applied alone in a corresponding dose (%) (weeds; Commelina communis, B 30 g a.i./ha): 50.6%
3 | CCCN(CCC)C(=O)SCc1ccccc1 [Prosulfocarb] |  |  |  |  |  |  |  |  |  | Control effect of B applied alone in a corresponding dose (%) (weeds; Lolium multiflorum, B 300 g a.i./ha): 46.5%; Control effect of B applied alone in a corresponding dose (%) (weeds; Lolium multiflorum, B 600 g a.i./ha): 64.2%
4 | CC(C)N(C)S(=O)(=O)NC(=O)c1cc(-n2c(=O)cc(C(F)(F)F)n(C)c2=O)c(F)cc1Cl [Saflufenacil] |  |  |  |  |  |  |  |  |  | Control effect of B applied alone in a corresponding dose (%) (weeds; Eclipta prostrata, B 7.5 g a.i./ha): 50.8%; Control effect of B applied alone in a corresponding dose (%) (weeds; Eclipta prostrata, B 15 g a.i./ha): 69.6%
5 | C#CCN1C(=O)C(F)(F)Oc2cc(F)c(-n3c(=O)n(C)c(=S)n(C)c3=O)cc21 [Trifludimoxazin] |  |  |  |  |  |  |  |  |  | Control effect of B applied alone in a corresponding dose (%) (weeds; [2]): 44.4%; Control effect of B applied alone in a corresponding dose (%) (weeds; [3]): 66.7%
6 | C[C@@H](Oc1nc(F)c(Cl)c(N)c1Cl)C(=O)OCC1CCCO1 (some centres unmarked) |  |  |  |  |  |  |  |  |  | Control effect of B applied alone in a corresponding dose (%) (weeds; Silene conoidea, B 75 g a.i./ha): 48.0%; Control effect of B applied alone in a corresponding dose (%) (weeds; Silene conoidea, B 150 g a.i./ha): 54.2%
7 | C#CCN(C)c1c(C#N)cnn1-c1nn2c(c1Cl)CCCC2 [Pyraclonil] |  |  |  |  |  |  |  |  |  | Control effect of B applied alone in a corresponding dose (%) (weeds; Eclipta prostrata, B 37.5 g a.i./ha): 47.0%; Control effect of B applied alone in a corresponding dose (%) (weeds; [4]): 65.8%
8 | CCOCN(C(=O)CCl)c1c(C)cccc1CC [Acetochlor] |  |  |  |  |  |  |  |  |  | Control effect of B applied alone in a corresponding dose (%) (weeds; Amaranthus retroflexus, B 150 g a.i./ha): 40.2%; Control effect of B applied alone in a corresponding dose (%) (weeds; Amaranthus retroflexus, B 300 g a.i./ha): 58.3%
9 | CCN(C(=O)n1nnn(-c2ccccc2Cl)c1=O)C1CCCCC1 [Fentrazamide] |  |  |  |  |  |  |  |  |  | Control effect of B applied alone in a corresponding dose (%) (weeds; Eclipta prostrata, B 22.5 g a.i./ha): 35.1%; Control effect of B applied alone in a corresponding dose (%) (weeds; Eclipta prostrata, B 45 g a.i./ha): 48.9%
10 | CCNc1nc(Cl)nc(NC(C)(C)C)n1 [Terbuthylazine] |  |  |  |  |  |  |  |  |  | Control effect of B applied alone in a corresponding dose (%) (weeds; Chloris virgata, B 225 g a.i./ha): 35.5%; Control effect of B applied alone in a corresponding dose (%) (weeds; Chloris virgata, B 450 g a.i./ha): 52.7%
11 | CCCOCCN(C(=O)CCl)c1c(CC)cccc1CC [Pretilachlor] |  |  |  |  |  |  |  |  |  | Control effect of B applied alone in a corresponding dose (%) (weeds; [4]): 38.4%; Control effect of B applied alone in a corresponding dose (%) (weeds; Eclipta prostrata, B 150 g a.i./ha): 68.3%
12 | CCN(CC)C(=O)C(C)Oc1cccc2ccccc12 (centres unmarked) [Napropamide] |  |  |  |  |  |  |  |  |  | Control effect of B applied alone in a corresponding dose (%) (weeds; Descurainia sophia, B 150 g a.i./ha): 38.6%; Control effect of B applied alone in a corresponding dose (%) (weeds; Descurainia sophia, B 300 g a.i./ha): 55.7%
13 | CC1(C)CON(Cc2ccc(Cl)cc2Cl)C1=O [Bixlozone] |  |  |  |  |  |  |  |  |  | Control effect of B applied alone in a corresponding dose (%) (weeds; Lolium multiflorum, B 75 g a.i./ha): 50.2%; Control effect of B applied alone in a corresponding dose (%) (weeds; Lolium multiflorum, B 150 g a.i./ha): 70.0%
14 | Cc1ccc(-n2cnc(C(F)F)n2)nc1Oc1ccc(F)c(OC(F)(F)F)c1 [Compound 80] | 9 | 9 | 9 | 8 (growth control rate is greater than or equal to 90% and less than 100%) | 9 | 9 | 0 | 0 | 0 | 
15 | COCc1ccc(-n2cnc(C(F)(F)F)n2)nc1Oc1ccc(F)c(OC(F)F)c1 [Compound 147] | 9 | 9 | 8 (growth control rate is greater than or equal to 90% and less than 100%) | 9 | 9 | 9 | 0 | 0 | 0 | 
16 | CCc1ccc(-n2cnc(C(C)(F)F)n2)nc1Oc1cccc(C(F)(F)F)c1 [Compound 18] | 9 | 9 | 8 (growth control rate is greater than or equal to 90% and less than 100%) | 8 (growth control rate is greater than or equal to 90% and less than 100%) | 8 (growth control rate is greater than or equal to 90% and less than 100%) | 9 | 0 | 0 | 0 | 
17 | Cc1ccc(-n2cnc(C(F)F)n2)nc1Oc1cccc(OC(F)F)c1 [Compound 79] | 9 | 9 | 9 | 9 | 8 (growth control rate is greater than or equal to 90% and less than 100%) | 9 | 0 | 0 | 0 | 
18 | Cc1cc(Oc2cccc(C(F)(F)F)c2)nc(-n2cnc(C(F)(F)F)n2)c1 [Compound 5] | 9 | 9 | 9 | 9 | 9 | 9 | 0 | 0 | 0 | 
19 | Cc1ccc(-n2cnc(C(F)(F)F)n2)nc1Oc1ccc(F)c(OC(F)F)c1 [Compound 75] | 9 | 9 | 9 | 9 | 9 | 9 | 0 | 0 | 0 | 
20 | Cc1ccc(-n2cnc(C(F)F)n2)nc1Oc1cccc(OC(F)(F)F)c1 [Compound 83] | 9 | 9 | 9 | 9 | 9 | 9 | 0 | 0 | 0 | 

— patent publication US20260305610A1, “TRIAZOLE COMPOUND, AND PREPARATION METHOD THEREFOR, HERBICIDAL COMPOSITION AND USE THEREOF” (QINGDAO KINGAGROOT CHEMICAL COMPOUND CO., LTD., priority 2023, published 2026)
